Assay results published in PMC12504763, “Antiproliferation, 3D-multicellular spheroid and VEGFR-2 inhibitory properties of spiroindolin-2-ones with phosphonate function” (Scientific Reports, 2025).
“And” between values parts separate entries of the source, which are not always exact repeats. Equal values may be shown once. Read-outs that look alike come from different tables or passages of the source.

Assays:
[1] = tested on: HCT116 (colon) cancer cell line; assay: 2D-monolayer antiproliferation (MTT) against HCT116; assay type: cell-based, human; settings: for IC50: Homo sapiens, HCT-116; for SI (selectivity index) HCT116: IC50 of RPE1 normal cell/IC50 of HCT116
[2] = tested on: PaCa2 (pancreatic) cancer cell line; assay: 2D-monolayer antiproliferation (MTT) against PaCa2; assay type: cell-based, human; settings: for 1/(observed property): 1/observed IC50 (μM), PaCa2; for IC50: Homo sapiens, PaCa-2, MTT, 72 h incubation, PaCa2 pancreatic, read-out: IC50, μM ± SEM PaCa2; for SI (selectivity index) PaCa2: IC50 of RPE1 normal cell/IC50 of PaCa2
[3] = tested on: MCF7 (breast) cancer cell line; assay: 2D-monolayer antiproliferation (MTT) against MCF7; assay type: cell-based, human; settings: for IC50: Homo sapiens, MTT, 72 h incubation, MCF7 breast, read-out: IC50, μM ± SEM MCF7; for SI (selectivity index) MCF7: IC50 of RPE1 normal cell/IC50 of MCF7
[4] = tested on: A549 (lung) cancer cell line; assay: 2D-monolayer antiproliferation (MTT) against A549; assay type: cell-based, human; settings: for IC50: Homo sapiens, MTT, 72 h incubation, A549 lung, read-out: IC50, μM ± SEM A549; for SI (selectivity index) A549: IC50 of RPE1 normal cell/IC50 of A549
[5] = tested on: RPE1 (normal human immortalized retinal pigment epithelial cell line); assay: cells; assay type: cell-based; settings: Homo sapiens, RPE-1; MTT, normal RPE1 cell; read-out: IC50, μM ± SEM RPE1
VEGFR-2 [6] = target: T1, VEGFR-2 (Homo sapiens, UniProt P35968); assay: cell-based; assay type: cell-based; settings: for inhibition at 10 µM: HCT-116, HCT116; for VEGFR-2 pg/mL ± SEM HCT116: at 10 μM, control 317.80 ± 3.5
T1 construct: endogenous in cells; host or cells: HCT116, PaCa2, MCF7 (human cancer cell lines, ATCC origin)
T1 sequence (P35968 20-1356): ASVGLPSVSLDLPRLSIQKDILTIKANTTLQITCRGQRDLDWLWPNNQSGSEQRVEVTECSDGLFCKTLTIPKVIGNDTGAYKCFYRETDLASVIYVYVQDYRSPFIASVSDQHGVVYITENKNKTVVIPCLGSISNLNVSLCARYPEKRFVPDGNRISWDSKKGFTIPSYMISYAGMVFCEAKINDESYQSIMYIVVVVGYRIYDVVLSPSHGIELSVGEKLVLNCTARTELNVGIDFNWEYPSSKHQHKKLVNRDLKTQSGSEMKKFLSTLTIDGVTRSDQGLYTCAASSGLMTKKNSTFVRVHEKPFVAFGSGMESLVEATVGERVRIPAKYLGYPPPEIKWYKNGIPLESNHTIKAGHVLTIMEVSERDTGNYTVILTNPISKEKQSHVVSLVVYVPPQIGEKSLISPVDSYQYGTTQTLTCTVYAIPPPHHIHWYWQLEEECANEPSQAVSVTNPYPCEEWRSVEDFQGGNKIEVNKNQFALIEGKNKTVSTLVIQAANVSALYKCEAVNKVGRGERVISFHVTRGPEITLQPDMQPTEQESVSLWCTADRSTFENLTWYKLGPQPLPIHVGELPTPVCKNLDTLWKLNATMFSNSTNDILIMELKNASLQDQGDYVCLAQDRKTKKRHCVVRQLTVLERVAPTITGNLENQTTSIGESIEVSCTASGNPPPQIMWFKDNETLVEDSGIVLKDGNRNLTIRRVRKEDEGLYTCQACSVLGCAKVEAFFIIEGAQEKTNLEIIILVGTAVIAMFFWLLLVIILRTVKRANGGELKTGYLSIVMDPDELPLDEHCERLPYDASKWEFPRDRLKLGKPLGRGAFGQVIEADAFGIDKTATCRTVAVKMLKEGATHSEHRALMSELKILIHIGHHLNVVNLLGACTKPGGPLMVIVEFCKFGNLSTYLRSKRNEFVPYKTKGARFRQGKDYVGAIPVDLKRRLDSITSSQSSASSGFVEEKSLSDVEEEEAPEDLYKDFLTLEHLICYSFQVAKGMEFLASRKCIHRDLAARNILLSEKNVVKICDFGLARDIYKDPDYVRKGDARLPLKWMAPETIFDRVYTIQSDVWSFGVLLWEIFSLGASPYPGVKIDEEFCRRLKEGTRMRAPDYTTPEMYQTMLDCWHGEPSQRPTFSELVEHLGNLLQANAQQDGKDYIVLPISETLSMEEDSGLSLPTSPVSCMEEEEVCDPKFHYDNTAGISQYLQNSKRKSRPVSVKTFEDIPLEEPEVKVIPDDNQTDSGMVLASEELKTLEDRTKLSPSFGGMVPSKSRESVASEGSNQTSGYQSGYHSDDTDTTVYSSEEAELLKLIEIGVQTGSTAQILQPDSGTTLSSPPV

VEGFR-2 [7] = target: T1, VEGFR-2; assay: cell-based; assay type: cell-based; settings: for inhibition at 10 µM: PaCa-2, PaCa2; for VEGFR-2 pg/mL ± SEM PaCa2: at 10 μM, control 326.80 ± 1.9
VEGFR-2 [8] = target: T1, VEGFR-2; assay: cell-based; assay type: cell-based; settings: for inhibition at 10 µM: MCF7; for VEGFR-2 pg/mL ± SEM MCF7: at 10 μM, control 258.70 ± 2.3
COX-1 = target: T2, COX-1 (Ovis aries, UniProt P05979); assay: biochemical; settings: 3 replicates, read-out: % Inhibition of COX-1 ± SEM
T2 construct: purchased BioVision incorporated USA K548–100
T2 sequence (P05979 25-600): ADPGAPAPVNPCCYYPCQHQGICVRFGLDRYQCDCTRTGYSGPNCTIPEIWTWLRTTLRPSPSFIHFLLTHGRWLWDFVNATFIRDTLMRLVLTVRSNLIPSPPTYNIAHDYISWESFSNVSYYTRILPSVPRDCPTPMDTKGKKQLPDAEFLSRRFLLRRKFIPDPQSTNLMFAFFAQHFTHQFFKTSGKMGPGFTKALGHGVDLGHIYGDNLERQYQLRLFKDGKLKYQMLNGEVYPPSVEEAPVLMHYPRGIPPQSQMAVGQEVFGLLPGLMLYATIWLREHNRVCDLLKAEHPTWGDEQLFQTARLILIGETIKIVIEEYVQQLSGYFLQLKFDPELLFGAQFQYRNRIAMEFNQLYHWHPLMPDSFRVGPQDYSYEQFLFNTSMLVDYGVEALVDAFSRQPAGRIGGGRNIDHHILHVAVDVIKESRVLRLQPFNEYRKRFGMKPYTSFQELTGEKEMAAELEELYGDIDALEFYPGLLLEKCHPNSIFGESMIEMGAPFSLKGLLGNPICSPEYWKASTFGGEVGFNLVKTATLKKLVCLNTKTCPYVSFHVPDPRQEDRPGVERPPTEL

COX-2 = target: T3, COX-2 (Homo sapiens, UniProt P35354); assay: biochemical; settings: for inhibition at 10 µM: 3 replicates, read-out: % Inhibition of COX-2 ± SEM; for SI (selectivity index, COX-2/COX-1): at 10 μM
T3 construct: purchased BioVision incorporated USA K548–100
T3 sequence (P35354 18-604): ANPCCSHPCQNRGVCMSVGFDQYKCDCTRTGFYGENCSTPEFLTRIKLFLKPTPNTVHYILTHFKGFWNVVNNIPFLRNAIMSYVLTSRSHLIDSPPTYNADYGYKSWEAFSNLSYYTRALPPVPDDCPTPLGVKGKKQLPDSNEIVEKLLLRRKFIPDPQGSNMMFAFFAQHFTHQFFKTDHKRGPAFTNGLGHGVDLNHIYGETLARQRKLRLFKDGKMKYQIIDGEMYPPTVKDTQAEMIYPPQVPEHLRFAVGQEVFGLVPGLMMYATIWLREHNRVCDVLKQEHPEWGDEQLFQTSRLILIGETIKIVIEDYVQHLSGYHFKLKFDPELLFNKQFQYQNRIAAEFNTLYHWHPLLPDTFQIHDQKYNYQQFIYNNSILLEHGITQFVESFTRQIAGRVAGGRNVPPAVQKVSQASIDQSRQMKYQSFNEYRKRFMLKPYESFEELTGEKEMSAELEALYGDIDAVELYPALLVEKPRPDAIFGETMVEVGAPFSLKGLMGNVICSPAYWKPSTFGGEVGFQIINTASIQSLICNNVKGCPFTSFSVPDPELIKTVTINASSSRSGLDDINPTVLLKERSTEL

TNF-α [9] = assay: TNF-α inhibitory properties (ELISA), HCT116 cell lysate; assay type: cell-based, human; settings: at 10 μM; for TNF-α pg/mL (± SEM) HCT116: control 95.74 ± 0.5
TNF-α [10] = assay: TNF-α inhibitory properties (ELISA), PaCa2 cell lysate; assay type: cell-based, human; settings: at 10 μM; for TNF-α pg/mL (± SEM) PaCa2: control 111.8 ± 2.0
TNF-α [11] = assay: TNF-α inhibitory properties (ELISA), MCF7 cell lysate; assay type: cell-based, human; settings: at 10 μM; for TNF-α pg/mL (± SEM) MCF7: control 83.26 ± 1.1
CAM blood vessel network = assay: Chick chorioallantoic membrane (CAM) anti-angiogenic assay; assay type: in vivo, chicken; settings: 20 μL of 660 μM, 3 days; for Diameter of blood vessel (μm ± SEM): CAM test, control 459.7 ± 13.8
Protocol: CAM assay is an established xenograft technique for investigating the angiogenic effect due to the high resemblance of the human vascularized epithelium basement membrane with that of the chorioallantoic layer containing mainly type IV collagen[84]–[86].
Fig. 10 Images of light microscopy for anti-angiogenic evaluation of the tested compounds using CAM assay. […] The glass slide was placed on the surface of the CAM blood vessel network and left in an incubator at 37 °C for 3 days. The CAM blood vessel network was carefully cut and imaged under a light microscope (40 × magnification).
Fertilized white chicken eggs were incubated in a 37 °C incubator with constant humidity. On day 8, a small squared window was opened allowing the detachment of the growing CAM and shell. The opening was covered with an elastic bandage. […] The CAM was then sealed with a bandage and placed back in the incubator. CAMs were examined daily until day 12 (3 days), the vascularized membranes were then cut around the glass slide and fixed in 5% formalin. Images were taken with an Evos microscope at 40x and 100x magnification^9. Main blood vessel in the microscopic images of controls and samples were quantified by imageJ and analyzed for significant differences (n = 4).

HCT116 3D-spheroid = HCT116 3D-spheroid at 50 μM, relative to control
[12] = tested on: A549 (lung) cancer cell line; set-up: method as in Reference 45; settings: standard drug doxorubicin; ref Reference 45; cited from earlier work
[13] = tested on: PaCa2 (pancreatic) cancer cell line; set-up: method as in Reference 30; settings: standard drug sunitinib; ref Reference 30; cited from earlier work
[14] = MTT, 72 h incubation, HCT116 colon, read-out: IC50, μM ± SEM HCT116
[15] = log of observed IC50 (μM), HCT116, read-out: Log(observed property) (converted)

## CCOP(=O)(OCC)N1C/C(=C\c2ccc(OC)cc2)C(=O)C2(C1)C(c1ccc(OC)cc1)CN(C)C21C(=O)Nc2ccccc21 (centres unmarked) [Compound 17p, Diethyl (E)-[5′′-(4-methoxybenzylidene)-4′-(4-methoxyphenyl)-1′-methyl-2,4′′-dioxodispiro[indoline-3,2′-pyrrolidine-3′,3′′-piperidin]-1′′-yl]phosphonate]
[1]; [14]
  IC50: 5.51 ± 0.138 µM
[1]; [15]
  IC50: 5.51 µM
[1]
  SI (selectivity index) HCT116: 2.6
[2]
  1/(observed property): 0.1367
  IC50: 7.32 ± 0.226 µM
  SI (selectivity index) PaCa2: 1.9
[3]
  IC50: 5.43 ± 0.14 µM
  SI (selectivity index) MCF7: 2.6
[4]
  IC50: 13 ± 0.284 µM
  SI (selectivity index) A549: 1.1
[5]
  IC50: 14.2 ± 0.638 µM
VEGFR-2 [6]
  inhibition at 10 µM: 90%
  VEGFR-2 pg/mL ± SEM HCT116: 31.80 ± 0.8 pg/mL
VEGFR-2 [7]
  inhibition at 10 µM: 93.3%
  VEGFR-2 pg/mL ± SEM PaCa2: 21.76 ± 0.4 pg/mL
VEGFR-2 [8]
  inhibition at 10 µM: 81.3%
  VEGFR-2 pg/mL ± SEM MCF7: 48.30 ± 0.4 pg/mL
COX-1
  inhibition at 10 µM: 51.1 ± 2.7%
COX-2
  inhibition at 10 µM: 53.5 ± 2.1%
  SI (selectivity index, COX-2/COX-1): 1.10
TNF-α [9]
  TNF-α pg/mL (± SEM) HCT116: 26.21 ± 1.3 pg/mL
TNF-α [10]
  TNF-α pg/mL (± SEM) PaCa2: 25.8 ± 1.8 pg/mL
TNF-α [11]
  TNF-α % inhibition MCF7: 65.7%
  TNF-α pg/mL (± SEM) MCF7: 28.56 ± 2.9 pg/mL
CAM blood vessel network
  Diameter of blood vessel (μm ± SEM): 79.3 ± 3.3 μm
HCT116 3D-spheroid
  %CT (± SEM), percentage cytotoxicity: 68.3% and 68.3 ± 0.6%

## CCOP(=O)(OCC)N1C/C(=C\c2cccs2)C(=O)C2(C1)C(c1cccs1)CN(C)C21C(=O)Nc2ccc(Cl)cc21 (centres unmarked) [Compound 17s, Diethyl (E)-[5-chloro-1′-methyl-2,4′′-dioxo-4′-(thiophen-2-yl)-5′′-(thiophen-2-ylmethylene)dispiro[indoline-3,2′-pyrrolidine-3′,3′′-piperidin]-1′′-yl]phosphonate]
[1]; [14]
  IC50: 5.42 ± 0.288 µM
[1]; [15]
  IC50: 5.42 µM
[1]
  SI (selectivity index) HCT116: 1.9
[2]
  1/(observed property): 0.163
  IC50: 6.13 ± 0.131 µM
  SI (selectivity index) PaCa2: 1.7
[3]
  IC50: 4.64 ± 0.068 µM
  SI (selectivity index) MCF7: 2.2
[4]
  IC50: 8.1 ± 0.091 µM
  SI (selectivity index) A549: 1.3
[5]
  IC50: 10.2 ± 0.545 µM
VEGFR-2 [6]
  inhibition at 10 µM: 83.1%
  VEGFR-2 pg/mL ± SEM HCT116: 53.80 ± 0.9 pg/mL
VEGFR-2 [7]
  inhibition at 10 µM: 91.9%
  VEGFR-2 pg/mL ± SEM PaCa2: 26.50 ± 0.5 pg/mL
VEGFR-2 [8]
  inhibition at 10 µM: 81.6%
  VEGFR-2 pg/mL ± SEM MCF7: 47.60 ± 0.6 pg/mL
COX-1
  inhibition at 10 µM: 53.8 ± 2.8%
COX-2
  inhibition at 10 µM: 56.3 ± 2.3%
  SI (selectivity index, COX-2/COX-1): 0.83
TNF-α [9]
  TNF-α % inhibition HCT116: 9.6%
  TNF-α pg/mL (± SEM) HCT116: 86.57 ± 2.0 pg/mL
TNF-α [10]
  TNF-α % inhibition PaCa2: 19.0%
  TNF-α pg/mL (± SEM) PaCa2: 90.6 ± 2.8 pg/mL
TNF-α [11]
  TNF-α % inhibition MCF7: 1.9%
  TNF-α pg/mL (± SEM) MCF7: 81.64 ± 3.7 pg/mL
CAM blood vessel network
  % Inhibition of the blood vessels in CAM test: 86.7%
  Diameter of blood vessel (μm ± SEM): 61.3 ± 4.3 μm
HCT116 3D-spheroid
  %CT (± SEM), percentage cytotoxicity: 77.9% and 77.9 ± 1.2%

## COc1cccc2c1C(=O)c1c(O)c3c(c(O)c1C2=O)C[C@@](O)(C(=O)CO)C[C@@H]3O[C@H]1C[C@H](N)[C@H](O)[C@H](C)O1 [Doxorubicin]
[12]
  IC50: 5.93 µM

## CCN(CC)CCNC(=O)c1c(C)[nH]c(/C=C2\C(=O)Nc3ccc(F)cc32)c1C [Sunitinib, reference compound]
CAM blood vessel network
  % Inhibition of the blood vessels in CAM test: 88.6%
  Diameter of blood vessel (μm ± SEM): 52.3 ± 1.7 μm
[13]
  IC50: 16.9 µM
